Common to all, as to type: biochemical
One test addresses B-Raf (Homo sapiens (Human), UniProt P15056). The test can be described thus: Raf kinase assay (B-Raf), [33P] incorporation into MEK1(K97R). The conditions noted are these: for inhibition at 1 µM: 1.0 μM compound, read-out: B-Raf inhibition at 1.0 μM. The essentials:
(§1)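 [33P] transfer to kinase-dead MEK1(K97R) substrate (500 ng) measured after 30 min at 30 °C in Tris pH 7.5 buffer containing 8 μM ATP. Enzyme inputs were 2 ng for C-Raf and 5 ng for B-Raf and B-Raf V600E. Duplicate 3-fold serial dilutions gave the half-maximal inhibitory concentration.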

A further test deals with B-Raf (V600E) (Homo sapiens (Human), UniProt P15056, V600E). As to the kind of experiment: Raf kinase assay (B-Raf (V600E)), [33P] incorporation into MEK1(K97R). In a few lines: as §1
Chain of B-Raf (V600E) (P15056 whole entry V600E): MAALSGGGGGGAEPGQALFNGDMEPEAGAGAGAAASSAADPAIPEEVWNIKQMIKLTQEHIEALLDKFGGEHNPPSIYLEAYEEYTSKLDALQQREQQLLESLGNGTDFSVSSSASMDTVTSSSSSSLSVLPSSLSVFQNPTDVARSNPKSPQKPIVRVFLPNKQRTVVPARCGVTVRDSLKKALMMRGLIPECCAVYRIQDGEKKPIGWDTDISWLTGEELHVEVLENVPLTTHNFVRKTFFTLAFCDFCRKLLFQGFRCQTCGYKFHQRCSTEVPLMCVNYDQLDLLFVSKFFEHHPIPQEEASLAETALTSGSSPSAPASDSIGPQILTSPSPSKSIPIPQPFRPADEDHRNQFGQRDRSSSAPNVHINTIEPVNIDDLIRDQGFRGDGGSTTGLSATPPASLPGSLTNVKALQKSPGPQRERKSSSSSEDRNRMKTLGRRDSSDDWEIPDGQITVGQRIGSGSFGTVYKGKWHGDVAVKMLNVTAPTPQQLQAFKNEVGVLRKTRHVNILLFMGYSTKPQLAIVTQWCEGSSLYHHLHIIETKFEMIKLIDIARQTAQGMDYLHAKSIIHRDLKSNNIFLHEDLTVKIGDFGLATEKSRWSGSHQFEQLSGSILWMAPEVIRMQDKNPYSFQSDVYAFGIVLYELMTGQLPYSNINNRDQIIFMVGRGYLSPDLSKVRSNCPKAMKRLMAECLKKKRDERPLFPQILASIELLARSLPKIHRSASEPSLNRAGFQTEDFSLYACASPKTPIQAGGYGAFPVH
Another test addresses C-Raf (Homo sapiens (Human), UniProt P04049). As to the kind of experiment: Raf kinase assay (C-Raf), [33P] incorporation into MEK1(K97R). The essentials: as §1

Chain of B-Raf (P15056 whole entry): as the sequence (P15056 whole entry V600E) above, with E600V counted along it
Chain of C-Raf (P04049 whole entry): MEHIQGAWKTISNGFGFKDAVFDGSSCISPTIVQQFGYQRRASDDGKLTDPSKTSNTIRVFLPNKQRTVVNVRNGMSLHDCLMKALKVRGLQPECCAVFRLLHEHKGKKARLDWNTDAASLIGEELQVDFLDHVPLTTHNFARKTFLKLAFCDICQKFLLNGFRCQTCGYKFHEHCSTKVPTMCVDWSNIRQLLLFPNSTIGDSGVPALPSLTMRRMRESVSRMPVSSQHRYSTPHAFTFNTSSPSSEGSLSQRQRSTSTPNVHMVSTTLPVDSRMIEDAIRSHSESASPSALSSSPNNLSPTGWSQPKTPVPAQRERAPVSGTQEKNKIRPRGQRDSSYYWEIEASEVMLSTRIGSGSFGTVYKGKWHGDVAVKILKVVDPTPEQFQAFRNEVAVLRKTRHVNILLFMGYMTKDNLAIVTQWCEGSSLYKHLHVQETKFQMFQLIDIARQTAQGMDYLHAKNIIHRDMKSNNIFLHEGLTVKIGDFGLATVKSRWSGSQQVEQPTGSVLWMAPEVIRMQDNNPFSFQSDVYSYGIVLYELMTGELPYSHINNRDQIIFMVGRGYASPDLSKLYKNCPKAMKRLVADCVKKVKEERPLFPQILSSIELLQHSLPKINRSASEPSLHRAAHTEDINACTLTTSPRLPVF

One may read the IC50 as the midpoint of a concentration-inhibition curve. Read a low IC50 as greater potency. A word on the inhibition: it is the share of the control response that was lost under treatment. For `Fc1cccc(-c2ccc3ncnc(Nc4cccc5[nH]ncc45)c3c2)c1` [Compound 81, 6-(3-fluorophenyl)-N-(1H-indazol-4-yl)quinazolin-4-amine], the IC50 on B-Raf stood at 244 nM; at B-Raf (V600E), 280 nM; on C-Raf, 588 nM. Moreover, the inhibition at 1 µM on B-Raf is 79.1%.
Taken in the same sequence, the figures for `COc1cc(-c2ccc3ncnc(Nc4cccc5[nH]nnc45)c3c2)ccc1O` [Compound 82, 4-(4-(1H-benzo[d][1,2,3]triazol-4-ylamino)quinazolin-6-yl)-2-methoxyphenol] were 668 nM, 702 nM, 1270 nM and 58%.
Taken in the same sequence, the figures for `c1ccc(-c2ccc3ncnc(Nc4cccc5[nH]ncc45)c3c2)cc1` [Compound 86, N-(1H-indazol-4-yl)-6-phenylquinazolin-4-amine] were 201 nM, 287 nM, 597 nM and 77.8%.
For `FC(F)(F)c1cccc(-c2ccc3ncnc(Nc4cccc5[nH]ncc45)c3c2)c1` [Compound 87, N-(1H-indazol-4-yl)-6-(3-(trifluoromethyl)phenyl)quinazolin-4-amine], in that order: 356 nM, 371 nM, 844 nM and 71.3%.
In the case of `N#Cc1ccc(-c2ccc3ncnc(Nc4cccc5[nH]ncc45)c3c2)cc1` [Compound 88, 4-(4-(1H-indazol-4-ylamino)quinazolin-6-yl)benzonitrile], the values for the IC50 on B-Raf, on B-Raf (V600E) and on C-Raf were 249 nM, 299 nM and 630 nM, respectively. For the same compound, on B-Raf, the inhibition at 1 µM came out at 77.4%.
For `COc1ccc(-c2ccc3ncnc(Nc4cccc5[nH]ncc45)c3c2)cc1OC` [Compound 89, 6-(3,4-dimethoxyphenyl)-N-(1H-indazol-4-yl)quinazolin-4-amine], in that order: 205 nM, 259 nM, 869 nM and 80.4%.
For `CN(C)c1ccc(-c2ccc3ncnc(Nc4cccc5[nH]ncc45)c3c2)cc1` [Compound 90, 6-(4-(dimethylamino)phenyl)-N-(1H-indazol-4-yl)quinazolin-4-amine], in that order: 762 nM, 1010 nM, 4080 nM and 56.1%.
Take `Fc1ccccc1-c1ccc2ncnc(Nc3cccc4[nH]ncc34)c2c1` [Compound 91, 6-(2-fluorophenyl)-N-(1H-indazol-4-yl)quinazolin-4-amine]: the half-inhibitory concentration (IC50) against B-Raf worked out at 155 nM; at B-Raf (V600E) it was 255 nM; on C-Raf, 709 nM. Moreover, on B-Raf, the inhibition at 1 µM came to 85.3%.
As to `O=[N+]([O-])c1cccc(-c2ccc3ncnc(Nc4cccc5[nH]ncc45)c3c2)c1` [Compound 92, N-(1H-indazol-4-yl)-6-(3-nitrophenyl)quinazolin-4-amine], the half-maximal inhibitory concentration (IC50) on B-Raf came out at 428 nM; at B-Raf (V600E), 535 nM; on C-Raf it was 1610 nM. Also, on B-Raf, the inhibition at 1 µM turned out to be 66.3%.
Take `CCOc1ccc(-c2ccc3ncnc(Nc4cccc5[nH]ncc45)c3c2)cc1` [Compound 93, 6-(4-ethoxyphenyl)-N-(1H-indazol-4-yl)quinazolin-4-amine]: the half-maximal inhibitory concentration (IC50) at B-Raf was determined as 347 nM; against B-Raf (V600E), 355 nM; against C-Raf, 1560 nM. Also, the inhibition at 1 µM on B-Raf was determined as 76.6%.
Regarding `OCc1cccc(-c2ccc3ncnc(Nc4cccc5[nH]ncc45)c3c2)c1` [Compound 94, (3-(4-(1H-indazol-4-ylamino)quinazolin-6-yl)phenyl)methanol], the half-maximal inhibitory concentration (IC50) against B-Raf is 430 nM; at B-Raf (V600E), 551 nM; at C-Raf it was 1410 nM. Also, on B-Raf, the inhibition at 1 µM was 76.2%.
For `CS(=O)(=O)Nc1cccc(-c2ccc3ncnc(Nc4cccc5[nH]ncc45)c3c2)c1` [Compound 95, N-(3-(4-(1H-indazol-4-ylamino)quinazolin-6-yl)phenyl)methanesulfonamide], in that order: 430 nM, 534 nM, 1290 nM and 70.9%.
Turning to `COc1cc(-c2ccc3ncnc(Nc4cccc5c4cnn5C)c3c2)ccc1O` [Compound 99, 2-methoxy-4-(4-(1-methyl-1H-indazol-4-ylamino)quinazolin-6-yl)phenol], the IC50 came to 358 nM against B-Raf, 451 nM at B-Raf (V600E) and 3910 nM on C-Raf. Besides, the inhibition at 1 µM at B-Raf worked out at 61.1%.
Take `Cc1ccc(F)cc1-c1ccc2ncnc(Nc3cccc4[nH]ncc34)c2c1` [Compound 104, 6-(5-fluoro-2-methylphenyl)-N-(1H-indazol-4-yl)quinazolin-4-amine]: the IC50 against B-Raf worked out at 235 nM; against B-Raf (V600E), 357 nM; on C-Raf, 778 nM. Further, at B-Raf, the inhibition at 1 µM turned out to be 81.1%.
For `COc1cccc(-c2ccc3ncnc(Nc4cccc5[nH]ncc45)c3c2)c1OC` [Compound 105, 6-(2,3-dimethoxyphenyl)-N-(1H-indazol-4-yl)quinazolin-4-amine], in that order: 380 nM, 515 nM, 2130 nM and 72.6%.
Take `CN(C)c1ccc(-c2ccc3ncnc(Nc4cccc(O)c4)c3c2)cc1` [Compound 106, 3-(6-(4-(dimethylamino)phenyl)quinazolin-4-ylamino)phenol]: the IC50 against B-Raf turned out to be 272 nM; at B-Raf (V600E) it was 292 nM; against C-Raf, 3190 nM. For the same compound, at B-Raf, the inhibition at 1 µM came out at 78.7%.
Taken in the same sequence, the figures for `NS(=O)(=O)c1ccc(-c2ccc3ncnc(Nc4cccc5[nH]ncc45)c3c2)cc1` [Compound 107, 4-(4-(1H-indazol-4-ylamino)quinazolin-6-yl)benzenesulfonamide] were 345 nM, 328 nM, 677 nM and 75.4%.
Taken in the same sequence, the figures for `CCS(=O)(=O)Nc1cccc(-c2ccc3ncnc(Nc4cccc5[nH]ncc45)c3c2)c1` [Compound 108, N-(3-(4-(1H-indazol-4-ylamino)quinazolin-6-yl)phenyl)ethanesulfonamide] were 221 nM, 244 nM, 680 nM and 81.1%.
For `CS(=O)(=O)c1ccc(-c2ccc3ncnc(Nc4cccc5[nH]ncc45)c3c2)cc1` [Compound 110, N-(1H-indazol-4-yl)-6-(4-(methylsulfonyl)phenyl)quinazolin-4-amine], in that order: 248 nM, 273 nM, 650 nM and 81.8%.
For `COc1ccc(-c2ccc3nccc(Nc4cccc5[nH]ncc45)c3c2)cc1F` [Compound 112, 6-(3-fluoro-4-methoxyphenyl)-N-(1H-indazol-4-yl)quinolin-4-amine], the values for the IC50 against B-Raf, against B-Raf (V600E) and against C-Raf were 182 nM, 207 nM and 619 nM, respectively. Besides, the inhibition at 1 µM on B-Raf stood at 80.2%.
For `COc1ccc(-c2ccc3nccc(Nc4cccc5[nH]ncc45)c3c2)cc1OC` [Compound 113, 6-(3,4-dimethoxyphenyl)-N-(1H-indazol-4-yl)quinolin-4-amine], in that order: 263 nM, 291 nM, 972 nM and 75.5%.
Turning to `COc1ccc(-c2ccc3nccc(Nc4cccc5[nH]ncc45)c3c2)cc1Cl` [Compound 115, 6-(3-chloro-4-methoxyphenyl)-N-(1H-indazol-4-yl)quinolin-4-amine], the IC50 against B-Raf amounted to 267 nM; against B-Raf (V600E), 278 nM; against C-Raf, 735 nM. In addition, on B-Raf, the inhibition at 1 µM came out at 76.6%.
For `COc1cc(-c2ccc3ncnc(Nc4cccc(OC(F)F)c4)c3c2)ccc1O` [Compound 118, 4-(4-(3-(difluoromethoxy)phenylamino)quinazolin-6-yl)-2-methoxyphenol], in that order: 548 nM, 525 nM, 988 nM and 68.2%.
Taken in the same sequence, the figures for `COc1cc(-c2ccc3ncnc(Nc4ccccc4F)c3c2)ccc1O` [Compound 119, 4-(4-(2-fluorophenylamino)quinazolin-6-yl)-2-methoxyphenol] were 543 nM, 633 nM, 1440 nM and 67.1%.
For `Nc1ccc(-c2ccc3nccc(Nc4cccc5[nH]ncc45)c3c2)cc1` [Compound 121, 6-(4-aminophenyl)-N-(1H-indazol-4-yl)quinolin-4-amine], in that order: 227 nM, 284 nM, 753 nM and 76.2%.
For the compound `CCCS(=O)(=O)Nc1cccc(-c2ccc3nccc(Nc4cccc5[nH]ncc45)c3c2)c1` [Compound 122, N-(3-(4-(1H-indazol-4-ylamino)quinolin-6-yl)phenyl)propane-1-sulfonamide], the concentration for half-maximal inhibition (IC50) against B-Raf stood at 259 nM; at B-Raf (V600E), 264 nM; on C-Raf it was 439 nM. The inhibition at 1 µM at B-Raf came out at 77.5%.
On to `COc1cccc(-c2ccc3nccc(Nc4cccc5[nH]ncc45)c3c2)c1` [Compound 123, N-(1H-indazol-4-yl)-6-(3-methoxyphenyl)quinolin-4-amine], for which the IC50 worked out at 231 nM against B-Raf, 263 nM against B-Raf (V600E) and 688 nM on C-Raf. On B-Raf, the inhibition at 1 µM came out at 80.3%.
Taken in the same sequence, the figures for `Fc1ccccc1-c1ccc2nccc(Nc3cccc4[nH]ncc34)c2c1` [Compound 125, 6-(2-fluorophenyl)-N-(1H-indazol-4-yl)quinolin-4-amine] were 285 nM, 423 nM, 1030 nM and 71.2%.
